In data set [1] the test system is adenocarcinoma human alveolar basal epithelial cells (A549). Nature of the data set: MTT cytotoxic / anti-proliferative assay, A549. The format is cell-based. The procedure: (§1) The benxoxazepine derivative compound of the present disclosure was dissolved in DMSO to give a […] concentration. The DMSO concentration was less than 1.0% in all experiments and controls.
(§2) The evaluation of anti-proliferative activity was preformed to different cancer cells named human cervical adenocarcinoma (HeLa), adenocarcinoma human alveolar basal epithelial cells (A549), human breast cancer (MCF-7), colon adenocarcinoma Caco-2, compared with human fibroblast cell lines (F2). All cells were grown in Dulbecco's modified Eagle's minimal essential medium (DMEM), supplemented with 25 mM glucose, 10% inactivated fetal bovine serum (Flow, McLean, VA, USA), and 1% penicillin/streptomycin, and maintained at 37° C. in a humidified incubator with 5% CO2. The cells with 30-40 passages were used for further investigations.
(§3) Exponentially growing cells A549, HeLa, Caco-2, MCF-7, and normal fibroblast cell cells have been washed and seeded at 3×10^3 cells/well (100 μL/well) in 96 well microplates (Greiner, Germany). After 24 h, cells were confluent, and media was changed, and cells were incubated with the compound of the present disclosure (200-1 μg/mL) for 24 h. In vitro anti-proliferative activity was measured by the cell growth inhibition assay using 3-(4,5-dimethyl-thiazol-2-yl)-2,5-di-phenyltetrazolium bromide (MTT) assay according to the manufacturer's instructions (Promega Corporation, Madison, WI). Briefly, the assay measured the formation of blue formazan product as a result of the reduction of MTT by mitochondrial dehydrogenase, which indicates the normal function of mitochondria and cell viability. The amount of formazan was quantified using a microplate reader (Thermo Fisher Scientific, Waltham, MA, USA) and compared to the optical density obtained for the control (untreated) at 570 nm. The IC50 values were calculated according to the equation for Boltzmann sigmoidal concentration response curve using the nonlinear regression models (GraphPad, Prism Version 7, San Diego, CA, USA). The average of three replicates of IC50 values were calculated and mentioned in the present disclosure Table 1.
(§4) The anti-proliferative activity of the investigated compound of formula 1 of the present disclosure was expressed in IC50 values (the concentration needed to inhibit 50% of cell growth) compared to untreated cells (negative control).

The subject of data set [2] is release of TNF-α of HeLa cell lines. Nature of the data set: TNF-α release ELISA, HeLa. To be noted: 1, 5, 10, 25, 50 μg/mL, overnight, ELISA of supernatant. The format is cell-based, human. The procedure: (§5) Non-treated cells were used as negative controls. […] All incubation steps were performed at room temperature.
For orientation: In an ELISA, binding on a coated surface is turned into a signal by an enzyme label.

Data set [3] concerns release of IL-6 of normal fibroblast cell. Description: IL-6 release ELISA, normal fibroblast. It is filed as cell-based, human. To be noted: 1, 5, 10, 25, 50 μg/mL, overnight, ELISA of supernatant. The procedure:
as §5

In data set [4] the test system is human breast cancer (MCF-7). Description: MTT cytotoxic / anti-proliferative assay, MCF-7. It is filed as cell-based. The procedure:
as §1, §2, §3, §4

Data set [5] deals with release of TNF-α of MCF-7 cell lines. Description: TNF-α release ELISA, MCF-7. The note with it: 1, 5, 10, 25, 50 μg/mL, overnight, ELISA of supernatant. The format is cell-based, human. The procedure: as §5
Data set [6] relates to release of TNF-α of normal fibroblast cell. Nature of the data set: TNF-α release ELISA, normal fibroblast. The note with it: 1, 5, 10, 25, 50 μg/mL, overnight, ELISA of supernatant. It is filed as cell-based, human. The procedure: as §5
Data set [7] has as its system release of TNF-α of A549 cell lines. Description: TNF-α release ELISA, A549. The format is cell-based, human. To be noted: 1, 5, 10, 25, 50 μg/mL, overnight, ELISA of supernatant. The procedure:
as §5

Data set [8] deals with human fibroblast cell lines (F2). Nature of the data set: MTT cytotoxic / anti-proliferative assay, normal fibroblast. It is filed as cell-based. The procedure:
as §1, §2
as §3, with “After 24 h, cells were confluent, and media was changed, and cells were incubated with the compound of the present disclosure (200-1 μg/mL) for 24 h.” left out, “1. […]” for “1.”

For data set [9], the system named is human cervical adenocarcinoma (HeLa). Nature of the data set: MTT cytotoxic / anti-proliferative assay, HeLa. The format is cell-based. The procedure: as §1, §2
as §3, with “After 24 h, cells were confluent, and media was changed, and cells were incubated with the compound of the present disclosure (200-1 μg/mL) for 24 h.” left out, “1. […]” for “1.”

Data set [10] has as its system colon adenocarcinoma Caco-2. Description: MTT cytotoxic / anti-proliferative assay, Caco-2. The format is cell-based, human. The note with it: MTT.
The subject of data set [11] is release of IL-6 of HeLa cell lines. Description: IL-6 release ELISA, HeLa. It is filed as cell-based, human. The note with it: 1, 5, 10, 25, 50 μg/mL, overnight, ELISA of supernatant. The procedure: as §5
Data set [12] concerns release of IL-6 of MCF-7 cell lines. Description: IL-6 release ELISA, MCF-7. The note with it: 1, 5, 10, 25, 50 μg/mL, overnight, ELISA of supernatant. It is filed as cell-based, human. The procedure: as §5
Data set [13] deals with release of TNF-α of Caco-2 cell lines. Description: TNF-α release ELISA, Caco-2. The note with it: 1, 5, 10, 25, 50 μg/mL, overnight, ELISA of supernatant. The format is cell-based, human. The procedure: as §5
The nature of data set [14]: MTT cytotoxic / anti-proliferative assay, Caco-2. The format is cell-based, human. To be noted: human; calculated SI for cancer cell Caco-2; SI higher than 1.0 considered selective to cancer cell; read-out: Selectivity index (SI) Caco-2.
For data set [15], the system named is release of IL-6 of A549 cell lines. Nature of the data set: IL-6 release ELISA, A549. It is filed as cell-based, human. To be noted: 1, 5, 10, 25, 50 μg/mL, overnight, ELISA of supernatant. The procedure:
as §5

Setting [16] is: MTT, 24 h incubation, average of three replicates.
Setting [17] is: 24 h incubation, average of three replicates.

By IC50 is commonly meant the concentration that inhibits the measured activity by half. A higher IC50 goes with lower potency.

“Also recorded” adds a separate entry of the source.

For `N.N.[Cl][Pt][Cl]` [Cisplatin, cisplatin, reference compound], in data set [1] (setting [16]), the “IC50 A549” value turned out to be 3.13 ± 0.53 µg/mL. Besides, the “effect on the release of TNF-α, HeLa” value in [2] was “release TNF-α”. In [3], the “effect on the release of IL-6, normal fibroblast cells” value is listed as “not able to induce the release”. Moreover, in [4] (setting [16]), the “IC50 MCF-7” value was 1.51 ± 0.10 µg/mL. Moreover, in data set [5], the “effect on the release of TNF-α, MCF-7” value is recorded as “release TNF-α”. In data set [6], the “effect on the release of TNF-α, normal fibroblast cells” value is given as “not able to induce the release”. Besides, in data set [7], the “effect on the release of TNF-α, A549” value was “release TNF-α”. For the same molecule, the “IC50 Fibroblast” value in [8] (setting [17]) amounted to 2.83 ± 0.12 µg/mL. Further, the “IC50 HeLa” value in data set [9] (setting [17]) worked out at 0.13 µg/mL.

`C[S+](C)[O-]` [DMSO %, dimethyl sulfoxide]: the “IC50 A549 (DMSO %)” value in data set [1] (MTT, DMSO, value as % DMSO) is given as 0.33 ± 0.05%. Besides, in [4] (MTT, DMSO, value as % DMSO), the “IC50 MCF-7 (DMSO %)” value amounted to 0.097 ± 0.02%. For the same molecule, the “IC50 Caco-2 (DMSO %)” value in [10] (DMSO, value as % DMSO) amounted to 23.40 ± 3.20%. Further, in data set [8] (DMSO, value as % DMSO), the “IC50 Fibroblast (DMSO %)” value was 0.13 ± 0.02%. In addition, the “IC50 HeLa (DMSO %)” value in [9] (DMSO, value as % DMSO) turned out to be 0.15 ± 0.02%.

With `c1ccc2c3c(ccc2c1)OCCn1c-3nc2ccccc21` [compound of the general Formula (I)], the IC50 in data set [1] (Homo sapiens, A549, MTT, 24 h incubation, average of three replicates) stood at 15.7 ± 0.54 µg/mL; in data set [4] (Homo sapiens, MCF7, MTT, 24 h incubation, average of three replicates), 17.6 ± 0.72 µg/mL; in data set [10] (Homo sapiens, Caco-2, 24 h incubation, average of three replicates), 41.3 µg/mL; in data set [8] (Homo sapiens, Fibroblast, 24 h incubation, average of three replicates) it was 19.9 ± 1.4 µg/mL; in data set [9] (Homo sapiens, HeLa, 24 h incubation, average of three replicates), 0.003 µg/mL. In addition, the “Selectivity index (SI) A549” value in data set [1] (calculated SI for cancer cell A549, SI higher than 1.0 considered selective to cancer cell) is on record as 1.27. For the same molecule, the “effect on the release of IL-6, HeLa” value is listed as “stimulated the release of IL-6” in [11] and “able to stimulate the release of IL-6” in data set [11] (listed as tested compound). Further, the “effect on the release of IL-6, normal fibroblast cells” value in data set [3] (listed as tested compound) was “no effect; also recorded: not able to induce the release”. Further, in [4] (calculated SI for cancer cell MCF-7, SI higher than 1.0 considered selective to cancer cell), the “Selectivity index (SI) MCF-7” value was 1.13. Moreover, the “effect on the release of IL-6, MCF-7” value in [12] is listed as “stimulated the release of IL-6”; in data set [12] (listed as tested compound) it was “able to stimulate the release of IL-6”. The results for the “effect on the release of TNF-α, Caco-2” value in data set [13] and in data set [13] (listed as tested compound) were “only 50 μg/mL concentration was able to stimulate Caco-2 cell lines to significantly release TNF-α” and “able to stimulate Caco-2 cell lines to significantly release TNF-α when treated with 50 μg/mL concentration only”, respectively. The selectivity ratio at 24 h in data set [14] was 0.48. Besides, the “effect on the release of TNF-α, normal fibroblast cells” value in data set [6] is on record as “not able to induce the release”. Further, the “effect on the release of IL-6, A549” value in data set [15] is “stimulated the release of IL-6”; in data set [15] (listed as tested compound), “able to stimulate the release of IL-6”.
